Assay results as given in BindingDB's records for doi:10.1111/cbdd.12255 (Federal University of Rio De Janeiro, 2014).

Assays:
[1] = target: T1, Amine oxidase [flavin-containing] A (Homo sapiens, UniProt P21397); assay: MAO Assay; settings: pH 7.4; 37 °C
T1 sequence (P21397 whole entry): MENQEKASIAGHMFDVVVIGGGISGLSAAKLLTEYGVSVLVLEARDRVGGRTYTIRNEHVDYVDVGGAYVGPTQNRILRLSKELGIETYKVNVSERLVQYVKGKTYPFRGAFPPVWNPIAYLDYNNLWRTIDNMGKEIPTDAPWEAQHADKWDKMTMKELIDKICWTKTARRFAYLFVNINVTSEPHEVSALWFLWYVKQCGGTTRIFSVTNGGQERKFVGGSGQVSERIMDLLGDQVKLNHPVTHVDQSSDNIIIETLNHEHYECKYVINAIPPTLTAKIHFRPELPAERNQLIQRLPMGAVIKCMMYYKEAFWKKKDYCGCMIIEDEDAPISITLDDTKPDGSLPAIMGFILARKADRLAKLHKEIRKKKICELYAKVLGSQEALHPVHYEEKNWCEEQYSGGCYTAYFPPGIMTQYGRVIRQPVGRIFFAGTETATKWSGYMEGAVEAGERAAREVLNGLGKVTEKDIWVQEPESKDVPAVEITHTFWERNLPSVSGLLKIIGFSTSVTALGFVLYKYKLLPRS
Description: (§1) The reaction mixture (final volume 200 µL) contained 5 µg/mL MAO-A or MAO-B in a 50 mM sodium phosphate buffer pH 7.4, 1 mM p-tyramine (substrate for MAO-A) or 1 mM benzyl-amine (substrate for MAO-B), 1 U/mL HRP, and 200 µM AR was incubated, in the presence or absence of the inhibitors, at 37 °C for 45 min. The enzyme plus inhibitors were incubated at 37 °C for 20 min followed by the addition of the substrates, HRP and AR. The inhibitors were dissolved in 100% DMSO, and equivalent concentrations of DMSO alone (1-2%) were used as controls. Clorgyline (MAO-A inhibitor) or pargyline (MAO-B inhibitor) at 5 µM concentration was used as positive control for inhibition.

[2] = target: T2, Amine oxidase [flavin-containing] B (Homo sapiens, UniProt P27338); assay: MAO Assay; settings: pH 7.4; 37 °C
T2 sequence (P27338 whole entry): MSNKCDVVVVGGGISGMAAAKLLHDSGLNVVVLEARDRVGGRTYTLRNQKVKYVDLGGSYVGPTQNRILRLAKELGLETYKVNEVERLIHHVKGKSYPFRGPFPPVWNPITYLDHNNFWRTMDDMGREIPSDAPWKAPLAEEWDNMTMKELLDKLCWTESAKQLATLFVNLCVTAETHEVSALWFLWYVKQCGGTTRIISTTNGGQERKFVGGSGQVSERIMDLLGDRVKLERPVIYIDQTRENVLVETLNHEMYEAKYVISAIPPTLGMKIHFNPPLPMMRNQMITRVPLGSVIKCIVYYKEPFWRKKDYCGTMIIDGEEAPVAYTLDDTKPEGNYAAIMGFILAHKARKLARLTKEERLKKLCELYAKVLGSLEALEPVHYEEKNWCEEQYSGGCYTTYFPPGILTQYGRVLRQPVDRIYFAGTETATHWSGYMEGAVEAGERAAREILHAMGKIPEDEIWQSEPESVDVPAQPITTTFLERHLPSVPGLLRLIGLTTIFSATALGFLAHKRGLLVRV
Description: as §1

Row | SMILES | Ki [1] [µM] | Ki [2] [µM]
1 | CC(C)C=C1C(=O)C(=O)c2ccccc2C1=O | 35 | 18
2 | NCCCN(CCCC=Nc1cc(O)c2ccccc2c1O)Cc1ccccc1 [2‐({4‐[(3‐ aminopropyl)(benzyl)amino]butyl}amino)naphthalene‐ 1,4‐dione (Compound b2)] | 28 | 12
3 | CC(C)=Cc1c(N=CCCCN(CCCN)Cc2ccccc2)c(O)c2ccccc2c1O [2‐({4‐[(3‐aminopropyl)(benzyl)amino]butyl}amino)‐3‐ (2‐methylprop‐1‐en‐1‐yl)naphthalene‐1,4‐dione (Compound c2)] | 63 | 58
4 | CC(C)=CCc1c(N=CCCCN(CCCN)Cc2ccccc2)c(O)c2ccccc2c1O [2‐({4‐[(3‐aminopropyl)(benzyl)amino]butyl}amino)‐3‐ (3‐methylbut‐2‐en‐1‐yl)naphthalene‐1,4‐dione (Compound a2)] | 22 | 40
5 | CC(C)=CCC1C(=O)C(=O)c2ccccc2C1=O (centres undefined) [4-hydroxy-3-(3-methylbut-2-enyl)naphthalene-1,2-dione] | – | 59
